EC50, cleaved bond and not cleaved data for eight sequences are collected here from publication PMC8545107 (mBio, 2021).

The target in series [1] is gallocin gene promoter (PgllA) in S. gallolyticus subsp. gallolyticus UCN34 Δgsp pTCVΩPgllA-gfp (receptor BlpH). In words: Gallocin induction reporter gene assay (PgllA-gfp). Format: cell-based, Streptococcus gallolyticus subsp. gallolyticus. Particulars: reporter strain UCN34 Δgsp pTCVΩPgllA-gfp; maximum GFP fluorescence normalized with OD600; 37°C; triplicate, three trials, sigmoidal curve fit. From the text: We first aimed at determining the active form of GSP in S. gallolyticus subsp. gallolyticus strain UCN34. GSP is derived from a 45-residue precursor encoded by gsp and is predicted to be processed to a 24-mer peptide by cleavage of the amino-terminal leader sequence after a double glycine motif and then exported to the extracellular environment by the BlpAB transporter. However, GSP was previously isolated as a 21-mer peptide from S. gallolyticus subsp. gallolyticus TX20005 ([10]). We first confirmed by mass spectrometry analysis that GSP isolated from culture supernatants of strain UCN34 was strictly identical to the 21-mer peptide previously purified from strain TX20005 (Fig. S1). […] Therefore, we chemically synthesized GSP 21-mer and GSP 24-mer peptides to test their efficiency in activating gallocin gene transcription. To do so, we used a reporter S. gallolyticus subsp. gallolyticus strain, UCN34, in which the endogenous gsp gene has been deleted and which contains a plasmid expressing gfp under the control of the gallocin gene promoter (PgllA) ([33]).
Fluorescence and absorbance measurements were recorded using a Biotek Synergy H1 microplate reader using Gen5 data analysis software (v. 3.03). Biological assays were performed in triplicate per trial. EC50s from three trials were calculated using GraphPad Prism software (v. 7.0) using a sigmoidal curve fit.
Stock solutions of peptides (1 mM) were prepared in dimethyl sulfoxide (DMSO) and stored at 4°C in sealed glass vials. […] Black polystyrene 96-well microtiter plates (Costar) were used for the GFP cell-based reporter assays.
Peptide stock solutions were serially diluted with DMSO in either 1:2, 1:3, or 1:5 dilutions, and 2 μl of the diluted solution was added to each of the wells in a black 96-well microtiter plate. Each concentration was tested in triplicate, with DMSO only used as a negative control. Screening of peptide analogs was conducted using the S. gallolyticus subsp. gallolyticus UCN34 Δgsp pTCVΩPgllA-gfp strain. An overnight culture was used to make a fresh 2-ml culture without EM using a 1:10 dilution on the day of the experiment and incubated in a CO2 incubator (37°C with 5% CO2) for 3 to 4 h to reach mid-log to late log phase of growth (OD600 = 0.6 to 0.9). A final 1:10 dilution was made on a larger scale (20 ml) without EM and used for the assay, where 198 μl diluted bacterial culture was added to each well of the microtiter plate containing peptides. Plates were incubated at 37°C with shaking at 200 rpm. Fluorescence (excitation, 485 nm; emission, 516 nm) and optical density at 600 nm (OD600) readings were recorded for each well using a plate reader. Measurements were taken 1 h after inoculation and were recorded every 20 to 30 min for up to 3 h to capture the maximum fluorescence signal. The maximum fluorescence signal was normalized with the OD600 value and used to construct dose curves to determine the EC50.
A general note: In a reporter assay the amount or activity of a reporter protein is the signal.

Series [2] can be described thus: washed UCN34 Δgsp cells in sterile saline solution (0.9% [wt/vol] NaCl). The settings on record: S. gallolyticus subsp. gallolyticus UCN34 Δgsp, 37°C, up to 30 min.
The nature of series [3]: S. mutans ΔcomC washed cells in saline solution. The settings on record: S. mutans SMCC3 (ΔcomC), 37°C, up to 30 min.
Series [4] in a line: washed UCN34 ΔsepM cells in sterile saline solution (0.9% [wt/vol] NaCl). The settings on record: S. gallolyticus subsp. gallolyticus UCN34 ΔsepM, 37°C, up to 30 min.

No end group written: not given here.

Usually EC50 stands for the concentration giving half of the maximal effect. As for DFLIVGPFDWLKKNHKPT [GSP-des-K19-A21], the EC50 in series [1] was > 1000 nM. On to DFLIVGPFDWLKKNHKPTKH [GSP-des-A21], for which the EC50 in series [1] is > 1000 nM. For DFLIVGPFDWLKKNHKPTKHA, the cleaved bond entry in series [2] is “L3-I4, 30 min”; in series [3] it was “L3-I4, 30 min”.

On to KNKDFLIVGPFDWLKKNHKPTKHA, for which the cleaved bond entry is “L3-I4, 30 min” in series [2] and “L3-I4, 30 min” in series [4]. The not cleaved result in series [2] and in series [4] was “Degradation of KNK-GSP to GSP was not observed (30 min)” in each case. For the sequence DFLIVGPFDALKKNHKPTKHA [GSP W10A], in series [1], the EC50 is > 1000 nM.

As for DFLIVGPFDWLKKNHKPTK [GSP-des-H20-A21], the EC50 in series [1] was > 1000 nM.

Turning to DFLIVGPFDWLKKNHKPTAHA [GSP K19A], in series [1], the EC50 came out at 106 nM. Regarding LKKNHKPTKHA [GSP-des-D1-W10], the EC50 in series [1] was > 1000 nM.
